# Results taken from patent US20260184669A1, “LIPID COMPOUND AND COMPOSITION FOR DELIVERY OF ACTIVE SUBSTANCE” (KOREA RESEARCH INSTIUTE OF BIOSCIENCE AND BIOTECHNOLOGY, priority 2022, published 2026).
# Assays:
# female C57BL/6 mice = test: Protein expression efficiency of fLuc mRNA-LNPs after intramuscular injection (IVIS whole-body luminescence); assay type: in vivo; details: for Total flux 1 hour / Total flux 3 hours / Total flux 6 hours / Total flux 48 hours / Total flux 72 hours / Total flux: fLuc mRNA-LNP, intramuscular injection, luminescence at injection site, mice; for Total flux 1 hour: 1 hour after administration; for Total flux 3 hours: 3 hours after administration; for Total flux 6 hours: 6 hours after administration; for Total flux 48 hours: 48 hours after administration; for Total flux 72 hours: 72 hours after administration; for Total flux: after administration; for Fold increase in total flux at 3 h, MC3: relative to control LNP formulated with MC3; for Fold increase in total flux at 3 h, MC3 / Fold increase in total flux at 3 h, SM-102: 3 hours after intramuscular injection; for Fold increase in total flux at 3 h, SM-102: relative to control LNP formulated with SM-102
# Protocol: fLuc mRNA-LNPs formulated using various ionizable lipids were prepared according to the method described in Example 27 and administered in vivo via intramuscular (I. M.) or intravenous (IV.) injection to compare the resulting protein expression efficiency in vivo. As a control, EGFP mRNA-LNPs formulated with commercially available ionizable lipids MC3 or SM-102 were used. All mRNA-LNPs were administered at equal mRNA doses per body weight across different concentration groups (n≥4).
# Specifically, the dose of mRNA-LNPs was adjusted to 0.1-0.5 mg/kg of body weight, and the formulation was administered via I.M. or I.V. injection to female C57BL/6 mice (6-10 weeks old, Orient Bio, Korea) Subsequently, […], whole-body luminescence images were acquired using an in vivo imaging system (IVIS Lumina III, PerkinElmer, Walzam, MA, USA). To assess protein expression levels, 200 μL of D-luciferin (15 mg/mL) was administered via intraperitoneal (I.P.) injection 10 minutes prior to imaging. During image acquisition, the animals were anesthetized by inhalation of 3% isoflurane in 97% medical grade oxygen. In addition, the acquired luminescence images were quantitatively analyzed using imaging software (Living Image Software Version 4.4; PerkinElmer, USA).
# After intramuscular injection of the fLuc mRNA-LNPs, the luminescence intensity at the injection site was measured over time.
# Furthermore, the luminescence intensity at the injection site 3 hours after intramuscular injection was measured, and the relative protein expression efficiency was compared to that of control LNPs formulated with MC3 or SM-102.
# [1] = Stability of mRNA-LNPs according to storage temperature and duration; assay type: physicochemical; details: for Normalized EE % D-1 / Size (nm) D-1 / PDI D-1: day 1; for Normalized EE % D-7 / PDI D-7 / Size (nm) D-7: day 7; for Normalized EE % D-30 / PDI D-30 / Size (nm) D-30: day 30
# Protocol: Stability of fLuc mRNA-LNPs produced using various ionizable lipids according to the method of Example 27, was assessed by storing the LNPs at 4° C. and 25° C. At 1, 7, and 30 days post-manufacture, the size, PDI, and encapsulation efficiency (EE) of each mRNA-LNPs samples were measured using the methods described in Experimental Examples 2 and 3.
# [2] = Size, polydispersity index and surface charge of mRNA-LNP (Malvern Zetasizer Nano ZS90); assay type: physicochemical; details: for PDI / size (nm) Number: mRNA-LNP made with the ionizable lipid at its optimal formulation (Table 2); for size (nm) Number: diluted with PBS to 1 μg/mL mRNA; for Zeta (mV): surface charge of mRNA-LNP made with the ionizable lipid at its optimal formulation (Table 2)
# Protocol: Each mRNA-LNPs produced in Example 27 was diluted with PBS to a final mRNA concentration of 1 μg/mL. The size, polydispersity index (PDI), and surface charge of the mRNA-LNPs were then measured using a Malvern Zetasizer Nano ZS90 (Malvern Instruments, UK).
# For particles intended for systemic administration, such as via blood vessels, the particle size must be less than 200 nm in order to pass through the endothelial capillaries of the liver. In addition, the size distribution is considered uniform only when the PDI is 0.3 or less, which enables consistent and efficient therapeutic effects (Non-patent document 3 [Danaei, M. et al). Pharmaceutics 2018, 10, 57]).
# [3] = mRNA encapsulation efficiency (Quant-IT RiboGreen RNA assay); assay type: physicochemical; details: mRNA encapsulation efficiency of mRNA-LNP made with the ionizable lipid; average of two measurements
# Protocol: The mRNA encapsulation efficiency (EE, %) of LNPs containing mRNA was measured using the Quant-IT™ RiboGreen® RNA assay kit (Invitrogen, USA).
# The diluted samples were added to each well of a 96-well plate. Group A (without Triton X-100) was supplemented with 50 μL of 1×TE buffer, while Group B (with Triton X-100) was supplemented with 50 μL of 1×TE buffer containing 2% Triton-X 100. To release the encapsulated mRNA, the LNPs were treated with Triton-X 100 and incubated at 37° C. for 10 minutes. Subsequently, 100 μL of ribogreen reagent was added to each well. The fluorescence intensities of Group A and Group B were measured using a multi-plate reader (λex 480 nm, λem 520 nm), and mRNA encapsulation efficiency (%) was calculated using Equation 1 below. The encapsulation efficiency for each LNP was determined as the average of two independent measurements.
Normalized EE % D-1 ([1]; fLuc mRNA-LNP stored at 4° C.),Size (nm) D-1 ([1]; fLuc mRNA-LNP stored at 4° C.),Normalized EE % D-7 ([1]; fLuc mRNA-LNP stored at 4° C.),PDI D-7 ([1]; fLuc mRNA-LNP stored at 4° C.),Size (nm) D-7 ([1]; fLuc mRNA-LNP stored at 4° C.),Normalized EE % D-30 ([1]; fLuc mRNA-LNP stored at 4° C.),PDI D-30 ([1]; fLuc mRNA-LNP stored at 4° C.),Size (nm) D-30 ([1]; fLuc mRNA-LNP stored at 4° C.),Normalized EE % D-1 ([1]; fLuc mRNA-LNP stored at 25° C.),PDI D-1 ([1]; fLuc mRNA-LNP stored at 25° C.),Size (nm) D-1 ([1]; fLuc mRNA-LNP stored at 25° C.),Normalized EE % D-7 ([1]; fLuc mRNA-LNP stored at 25° C.),Compound,Total flux 1 hour (female C57BL/6 mice),Total flux 3 hours (female C57BL/6 mice),Total flux 6 hours (female C57BL/6 mice),Total flux 48 hours (female C57BL/6 mice),Total flux 72 hours (female C57BL/6 mice),Total flux (female C57BL/6 mice),"Fold increase in total flux at 3 h, MC3 (female C57BL/6 mice)","Fold increase in total flux at 3 h, SM-102 (female C57BL/6 mice)",further results
92.3%,106.8 nm,89.0%,0.106,155.6 nm,87.5%,0.044,146.2 nm,92.3%,0.154,106.8 nm,90.9%,"CCCCCCCCCCCOC(=O)CCCCCN(CCCCCCCC(=O)OC(CCCCCCCC)CCCCCCCC)CC(O)CCCCNC(=O)c1cnc(O)n1C (stereo not drawn) [Compound 40, Heptadecan-9-yl 8-((2-hydroxy-6-(2-hydroxy-1-methyl-1H-imidazole-5-carboxamido)hexyl)(6-oxo-6-(undecyloxy)hexyl)amino)octanoate]",7.92E+06,1.50E+07,6.60E+06,1.10E+06,8.29E+05,6.46E+05,1.22,0.13,PDI D-7 ([1]; fLuc mRNA-LNP stored at 25° C.): 0.112; Size (nm) D-7 ([1]; fLuc mRNA-LNP stored at 25° C.): 146.8 nm; Normalized EE % D-30 ([1]; fLuc mRNA-LNP stored at 25° C.): 89.3%; PDI D-30 ([1]; fLuc mRNA-LNP stored at 25° C.): 0.091; Size (nm) D-30 ([1]; fLuc mRNA-LNP stored at 25° C.): 144.8 nm; PDI [2]: 0.154; size (nm) Number [2]: 107 nm; Zeta (mV) [2]: −1.73 mV; EE (%) [3]: 92%
90.0%,112.8 nm,83.3%,0.079,120.3 nm,89.3%,0.113,115.6 nm,90.0%,0.145,112.8 nm,82.1%,"CCCCCCCCCCCOC(=O)CCCCCN(CCCCCCCC(=O)OC(CCCCCCCC)CCCCCCCC)CC(O)CCCCNC(=O)c1ncc[nH]1 (stereo not drawn) [Compound 33, Heptadecan-9-yl 8-((2-hydroxy-6-(1H-imidazole-2-carboxamido)hexyl)(6-oxo-6-(undecyloxy)hexyl)amino)octanoate]",1.80E+06,1.17E+07,1.26E+07,4.56E+05,4.96E+05,2.62E+06,0.94,0.10,PDI D-7 ([1]; fLuc mRNA-LNP stored at 25° C.): 0.133; Size (nm) D-7 ([1]; fLuc mRNA-LNP stored at 25° C.): 122.9 nm; Normalized EE % D-30 ([1]; fLuc mRNA-LNP stored at 25° C.): 87.2%; PDI D-30 ([1]; fLuc mRNA-LNP stored at 25° C.): 0.113; Size (nm) D-30 ([1]; fLuc mRNA-LNP stored at 25° C.): 106.4 nm; PDI [2]: 0.145; size (nm) Number [2]: 113 nm; Zeta (mV) [2]: −8.94 mV; EE (%) [3]: 90%
88.5%,142.2 nm,91.1%,0.086,141.1 nm,87.6%,0.086,147.3 nm,89.5%,0.132,142.2 nm,88.0%,"CCCCCCCCCCCOC(=O)CCCCCN(CCCCCCCC(=O)OC(CCCCCCCC)CCCCCCCC)CC(O)CCCCNC(=O)c1cncn1C (stereo not drawn) [Compound 38, Heptadecan-9-yl 8-((2-hydroxy-6-(1-methyl-1H-imidazole-5-carboxamido)hexyl)(6-oxo-6-(undecyloxy)hexyl)amino)octanoate]",2.19E+07,4.19E+07,1.47E+07,7.89E+05,5.32E+05,2.13E+06,3.39,0.37,PDI D-7 ([1]; fLuc mRNA-LNP stored at 25° C.): 0.093; Size (nm) D-7 ([1]; fLuc mRNA-LNP stored at 25° C.): 140.4 nm; Normalized EE % D-30 ([1]; fLuc mRNA-LNP stored at 25° C.): 86.1%; PDI D-30 ([1]; fLuc mRNA-LNP stored at 25° C.): 0.041; Size (nm) D-30 ([1]; fLuc mRNA-LNP stored at 25° C.): 152.0 nm; PDI [2]: 0.132; size (nm) Number [2]: 142 nm; Zeta (mV) [2]: −4.28 mV; EE (%) [3]: 88%
